These results are taken from US20110212853A1, “NOVEL DIAGNOSTIC METHOD” (PROBIODRUG AG, priority 2010, published 2011).

For one experiment, the system named is RAW 264.7 cells. The experiment is described as follows: mMCP-1 N1pE/mMCP-1 ratio by ELISA in LPS stimulated RAW 264.7 treated with QCI. The class given is cell-based, mouse. As to conditions: RAW 264.7, 10 ng/ml LPS, 24 h, different QCI concentrations. On the procedure: (§1) To capture mouse MCP-1, commercially available polyclonal antiserum rabbit anti mJE (Peprotech, Hamburg, Germany) as capture antibody which specifically binds mouse MCP-1 was diluted in PBS to 500 ng/ml and immobilized in polystyrene 96-well microtitre plates over 4-7 nights at 4° C. Thereafter, blocking occurred for 2 hours at room temperature with ELISA Blocker (Thermo Fisher Scientific, Waltham, USA). For preparation of the standard curve recombinant mMCP-1 was incubated with mouse Glutaminyl Cyclase (QC) in order to obtain mMCP-1 N1pE. The recombinant mMCP-1 N1pE standard peptide was serially diluted with ELISA Blocker from 1950 pg/ml down to 19.5 pg/ml and added to the wells in duplicate. Two wells filled with ELISA Blocker represent the standard curve value 0 pg/ml. After an incubation period of 2 hours at room temperature, plates were washed at least three times with TBS-T. For detection of mMCP-1 N1pE, the MCP-1 N1pE antibody clone 348-2C9 together with HRP-conjugated anti mouse antibody were both diluted in ELISA Blocker to final concentrations of 500 ng/ml. […] Absorption at 450/540 nm was determined by a Tecan Sunrise plate reader.
In order to analyse the effect of QCI on the ratio of mouse MCP-1 N1pE/mouse MCP-1, the mouse macrophage cell line RAW 264.7 was stimulated with LPS in the absence or presence of increasing concentrations of the QC inhibitor QCI. […] After 24 h cell culture supernatants were analyzed according to the protocol in Example 9. […]

The test system of experiment [1] is thioglycollate-induced peritonitis. Put plainly: mMCP-1 N1pE/mMCP-1 ratio and monocyte infiltration in mice treated with thioglycollate and QCI. In kind it is in vivo, mouse. As to conditions: QCI intraperitoneal 30 minutes before thioglycollate. Here is the method:
as §1, with “reader. […]” for “reader.”
Thioglycollate was injected intraperitoneal in mice. […] Infiltrated monocytes were counted by FACS analysis via double staining of 7/4 and Ly6G antigens.

On to `COc1ccc(NC(=S)NCCCn2ccnc2)cc1OC.Cl` [QCI, 1-(3-(1H-imidazol-1-yl)propyl)-3-(3,4-dimethoxyphenyl)thiourea hydrochloride], for which, in the experiment with RAW 264.7 cells, the “amount of mMCP-1 N1pE” value is on record as “reduced by QCI in a concentration dependent manner”, the “amount of total mMCP-1” value is listed as “remains unaffected” and the “ratio of mMCP-1 N1pE/mMCP-1” value is recorded as “decreases with increasing inhibitor concentrations”. The “number of infiltrating monocytes to the peritoneum” value in experiment [1] (FACS, FIG. 23B) was “decreased number”. For the same compound, the “mMCP-1 N1pE/mMCP-1 ratio in peritoneal lavage fluid” value in experiment [1] (lavage after 4 h) is “dose dependent reduction”.
